Source: ChEMBL document CHEMBL4334506, “Xylodon flaviporus-Derived Drimane Sesquiterpenoids That Inhibit Osteoclast Differentiation” (J Nat Prod, 2019)

Legend:
BMDM [1] = assay: Cytotoxicity against M-CSF stimulated C57BL/6 mouse bone marrow macrophage cells at 1 to 10 uM after 4 days by XTT assay; assay type: cell-based; details: 96 h
BMDM [2] = assay: Inhibition of M-CSF/RANKL-induced osteoclast differentiation in C57BL/6 mouse bone marrow macrophage after 4 days by TRAP-staining based microscopic analysis; assay type: functional, cell-based
[3] = Inhibition of M-CSF/RANKL-induced osteoclast differentiation in C57BL/6 mouse bone marrow macrophage assessed as reduction in multinucleated TRAP+ cells after 4 days by TRAP-staining based microscopic analysis; assay type: functional, cell-based; details: C57BL/6, BMDM, 96 h
BMDM [4] = assay: Cytotoxicity against M-CSF stimulated C57BL/6 mouse bone marrow macrophage cells at 3 to 30 uM after 4 days by XTT assay; assay type: cell-based; details: 96 h

Compound	Activity (BMDM [1])	inhibition (BMDM [2])	IC50 [3] [µM]	Activity (BMDM [4])
CO[C@@H]1OC(=O)C2=C[C@H](OC(=O)/C=C/c3ccccc3)[C@H]3C(C)(C)CCC[C@]3(C)[C@H]21	Non-Toxic	Dose-dependent effect	10.1	
CC1(C)CCC[C@]2(C)[C@@H]3C(=C[C@H](OC(=O)/C=C/c4ccc(O)cc4)[C@@H]12)CO[C@H]3O	Non-Toxic	Dose-dependent effect	2.1	
CC1(C)CCC[C@]2(C)[C@H](O)C(C=O)=C[C@H](OC(=O)/C=C/c3ccccc3)[C@@H]12	Non-Toxic	Dose-dependent effect	8.5	
CC1(C)CCC[C@]2(C)C3=C(COC3=O)C[C@H](OC(=O)/C=C/c3ccc(O)cc3)[C@@H]12	Non-Toxic	Dose-dependent effect	0.9	
CC1(C)CCC[C@]2(C)[C@@H]3C(=C[C@H](OC(=O)/C=C/c4ccccc4)[C@@H]12)CO[C@H]3O		Dose-dependent effect	10.7	Non-Toxic
CC1(C)CCC[C@]2(C)C3=C(COC3=O)C[C@H](OC(=O)/C=C/c3ccccc3)[C@@H]12	Non-Toxic	Dose-dependent effect	1.6	
